Assay results: patent US20080234345A1, “METHOD FOR REDUCING OR ALLEVIATING INFLAMMATION IN THE DIGESTIVE TRACT” (Gene Logic Inc., priority 2006, published 2008)

Experiments:
[1] = tested on: NF-κB dependent transcription; assay: In vivo basal NF-κB dependent transcription in NF-κB::Luc reporter mice, abdominal imaging; conditions: 4 hours
Text: GL1001 was further tested for in vivo anti-inflammatory activity by examining its effects on basal levels of NF-κB dependent transcription in mice engineered in the germline with a construct containing an NF-κB enhancer linked to a luciferase gene (i.e., NF-κB::Luc mice), such that this NF-κB reporter construct is present in all cells of the mice.
More particularly, transgenic NF-κB::Luc mice were generated using three NF-κB response elements from the Igκ light chain promoter fused to a firefly luciferase gene as described by Carlsen et al. (2002) J. Immunol. 168:1441-1446. Pronuclear microinjection of purified construct DNA was used to generate transgenic founders in the C57BL/6 XCBA/J background. Founders were subsequently back crossed to the C57BL/6 albino background. […] Signal data were also quantitated and archived using the Living Image® software. Photons of light were quantitated using an oval region of interest (ROI) of varying sizes depending on the procedure, as described further below.
To test for in vivo effects of GL1001 on basal levels of NF-κB dependent transcription, male NF-κB::Luc mice were subjected to quantitative in vivo imaging of the abdominal area (using a fixed ROI of 2.76×3.7 cm) as described above, immediately before, and at 2, […]

[2] = tested on: activator protein-1 (AP-1); assay: Basal in vivo reporter luciferase expression in AP-1::Luc mice; conditions: AP-1::Luc mice (data not shown)
[3] = tested on: NF-κB dependent transcription; assay: In vivo LPS induced NF-κB dependent transcription in NF-κB::Luc mice, abdominal imaging
Text: More particularly, transgenic NF-κB::Luc mice were generated using three NF-κB response elements from the Igκ light chain promoter fused to a firefly luciferase gene as described by Carlsen et al. (2002) J. Immunol. 168:1441-1446. Pronuclear microinjection of purified construct DNA was used to generate transgenic founders in the C57BL/6 XCBA/J background. Founders were subsequently back crossed to the C57BL/6 albino background. All experimental protocols were approved by the Institutional Animal Care and Use Committee and conform to the ILAR guide for the care and used of laboratory animals. For in vivo imaging, NF-κB::Luc mice were injected intraperitoneally with luciferin (150 mg/kg) 10 minutes before imaging, anesthetized (using 1-3% isoflurane) and placed into a light-tight camera box. […] Signal data were also quantitated and archived using the Living Image® software. Photons of light were quantitated using an oval region of interest (ROI) of varying sizes depending on the procedure, as described further below.
GL1001 was further tested for in vivo anti-inflammatory activity by examining its effects on bacterial LPS induced NF-κB dependent transcription, in NF-κB::Luc mice. […] Mice were subjected to quantitative abdominal imaging at 2, 4 and 6 h following LPS administration, as described above. […] Luciferase signal was quantitated from several regions of interest. […]

[4] = tested on: NF-κB dependent transcription; assay: LPS induced NF-κB dependent transcription in extracted organs of NF-κB::Luc mice (luciferase lysate assay); type: in vivo; conditions: GL1001 30 mg/kg, LPS 0.5 mg/kg, vs LPS alone
Text: For luciferase assays, organs were extracted and snap frozen in liquid nitrogen. AII tissue samples were placed in lysis buffer with inhibitors (Passive Lysis Buffer (Promega) and Complete Mini Protease Inhibitor Cocktail (Roche, Indianapolis, Ind.)), and were homogenized using a tissue homogenizer (Handishear, Hand-held homogenizer, VirTis, Gardiner, N.Y.). Tissue homogenates were centrifuged and clarified lysates were used for luminometer assays and western blots. For the luminometer assays, Luciferase Assay Substrate (Luciferase Assay System, Promega) was prepared as indicated by the manufacturer and placed in disposable cuvettes. […] Background luminescence readings were obtained and the background readings were subtracted from the luminescent data. Protein concentrations were determined using the BCA Protein Assay Kit (Pierce, Rockford, Ill.) following the manufacturer's protocols and analyzed using a VERSAmax tunable microplate reader and associated Softmax Pro version 3.1.2 software (Molecular Devices, Sunnyvale Calif.). The luminescence for each of the protein lysates was calculated as arbitrary units of light per microgram of protein. […]
GL1001 was further tested for in vivo anti-inflammatory activity by examining its effects on bacterial LPS induced NF-κB dependent transcription, in NF-κB::Luc mice. […] Luciferase signal was quantitated from several regions of interest. […]

[5] = tested on: DSS-induced NF-κB signaling; assay: Subsequent DSS study in NF-κB::Luc mice, oral gavage; type: in vivo; conditions: 300 mg/kg/day, twice daily by oral gavage; 2.5% DSS
Text: In a subsequent study in NF-κB::Luc mice, 2.5% DSS treatment tended to increase NF-κB signaling, as measured by luciferase expression, in distal colon and mesenteric lymph tissues, although these increases were generally not statistically significant. […] Reasons for lack of effect of GL1001 in this study are not fully understood at present.

[6] = tested on: DSS-induced colitis in Balb/c mice; assay: DSS-induced histological effects in colon of Balb/c mice (Example 6); type: in vivo
Protocol: A study was designed with five groups of Balb/c mice: naïve control, DSS followed by vehicle, DSS followed by dexamethasone 3 mg/kg/day, DSS followed by GL1001 10 mg/kg/day, and DSS followed by GL1001 100 mg/kg/day. Administration of DSS was via drinking water (DSS 5% in water), from day 0 to day 7 of the study. […] Administration of vehicle, dexamethasone and GL1001 was subcutaneous, once daily, from day 7 until termination of the study (day 14).
At termination of the study, samples from proximal, transverse and distal portions of the colon of each animal were collected for histological analysis, which included: • (a) inflammation score (0-5), based on leukocyte infiltration in mucosa and submucosa, crypt abcess and edema; • (b) glandular score (0-5), based on crypt destruction (crypts function to produce mucin and generate epithelium); and • (c) erosion score (0-5), based on integrity of epithelium or degree of ulceration thereof. A total histopathological score was obtained by adding the scores from (a), (b) and (c) above.

[7] = GL1001 100 mg/kg/day s.c. once daily

CC(C)C[C@H](N[C@@H](Cc1cncn1Cc1cc(Cl)cc(Cl)c1)C(=O)O)C(=O)O [GL1001, (S,S)-2-[1-carboxy-2-[3-(3,5-dichlorobenzyl)-3H-imidazol-4-yl]-ethylamino]-4-methylpentanoic acid]
inhibition of basal in vivo levels of NF-κB dependent transcription in abdominal ROI ([1]; 300 mg/kg subcutaneous, p<0.01): over 40%
inhibition of basal in vivo levels of NF-κB dependent transcription in abdominal ROI ([1]; both lower doses, subcutaneous): lesser but still significant extents
basal in vivo levels of reporter luciferase expression [2]: no significant effect
LPS induced NF-κB signaling response, abdominal region ([3]; GL1001 30, 100, 300 mg/kg s.c. 1 hour before LPS i.v. (FIG. 4)): significantly reduced
LPS induced NF-κB signaling ([3]; at 30 and 100 mg/kg, dose range 3-100 mg/kg (FIG. 5)): significantly reduced
LPS induced NF-κB signaling in pancreas and uterus, or any other organ analyzed [4]: no statistically significant decrease
reduction of LPS induced NF-κB-dependent transcription in stomachs [4]: about 37 fold
DSS-induced NF-κB signaling (luciferase expression) [5]: did not lower
histological effect ([6]; GL1001 10 mg/kg/day s.c.): No significant histological effect
micrograph of distal colon section (FIG. 14) ([6]; GL1001 100 mg/kg s.c. once daily, one animal): Inflammation and gland loss are mild, and no erosion is seen
erosion score, distal colon [6, 7]: significantly reduced
glandular score, distal colon [6, 7]: significantly reduced
inflammation score, distal colon [6, 7]: significantly reduced
total histopathological score, distal colon [6, 7]: significantly reduced
disease activity (based on fecal samples) ([6]; s.c. once daily day 7-14, dexamethasone 3 mg/kg/day, GL1001 10 and 100 mg/kg/day): No significant improvement
